Measurements taken from ChEMBL document CHEMBL4476868, “Benzimidazole derivatives and uses thereof” (2017).
pIC50: −log10 of the molar value.

Molecular target: Acetyl-coenzyme A synthetase, cytoplasmic (Homo sapiens, UniProt Q9NR19)
Experiment: Inhibition of N-terminal 6x-histidine tagged human ACSS2 expressed in insect cells assessed as reduction in pyrophosphate production using CoA and ATP incubated for 30 mins by pyrophosphatase coupled enzymatic assay

Acetyl-coenzyme A synthetase, cytoplasmic, sequence (Q9NR19 whole entry): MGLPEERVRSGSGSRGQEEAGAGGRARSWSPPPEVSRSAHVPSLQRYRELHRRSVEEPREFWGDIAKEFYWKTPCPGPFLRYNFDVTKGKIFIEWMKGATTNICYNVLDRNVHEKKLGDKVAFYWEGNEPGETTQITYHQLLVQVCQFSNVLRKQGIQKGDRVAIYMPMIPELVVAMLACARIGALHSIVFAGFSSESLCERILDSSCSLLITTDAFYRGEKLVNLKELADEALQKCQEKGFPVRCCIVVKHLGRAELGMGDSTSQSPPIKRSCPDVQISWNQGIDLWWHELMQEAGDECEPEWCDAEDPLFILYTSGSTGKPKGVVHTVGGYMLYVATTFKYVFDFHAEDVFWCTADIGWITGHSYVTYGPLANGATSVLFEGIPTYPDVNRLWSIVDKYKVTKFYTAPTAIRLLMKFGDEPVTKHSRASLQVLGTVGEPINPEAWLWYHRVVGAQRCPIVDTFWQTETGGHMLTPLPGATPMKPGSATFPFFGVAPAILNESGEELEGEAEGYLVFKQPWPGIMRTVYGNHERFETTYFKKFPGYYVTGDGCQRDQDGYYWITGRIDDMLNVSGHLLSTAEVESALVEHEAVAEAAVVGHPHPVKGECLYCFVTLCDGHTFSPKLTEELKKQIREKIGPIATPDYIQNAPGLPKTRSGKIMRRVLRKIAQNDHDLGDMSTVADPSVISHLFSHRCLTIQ

pIC50	SMILES
6.00 to 6.60	C[C@@H](O)CNC(=O)c1ccc2nc(C(O)(c3ccc(F)cc3)c3ccc(F)cc3)n(C)c2c1
6.00 to 6.60	CCn1c(C(O)(c2ccccc2)c2ccccc2)nc2ccc(C)c(OC)c21
6.00 to 6.60	CCn1c(C(O)(c2ccccc2)c2ccccc2)nc2ccc(C(=O)NC[C@@H](C)O)c(OC)c21
< 6.00	COc1ccc(C(O)(c2ccccc2)c2nc3ccc(C)cc3n2C)cn1 (stereo not drawn)
6.00 to 6.60	C[C@@H](O)CNC(=O)c1ccc2nc(C(O)(c3ccccc3)c3ccccc3)n(CC(F)(F)F)c2c1
6.00 to 6.60	CCn1c(C(O)(c2ccccc2)c2ccccc2)nc2ccc(C3(O)CCCCC3)cc21
6.00 to 6.60	C[C@@H](O)CNC(=O)c1ccc2nc(C(O)(c3ccc(F)cc3)c3ncccc3F)n(C)c2c1 (stereo partly drawn)
6.00 to 6.60	CCn1c(C(O)(c2ccc(F)cc2)c2ccc(F)cc2)nc2ccc(C(=O)NC[C@@H](C)O)cc21
< 6.00	CCn1c(C(O)(c2ccccc2)c2ccccc2)nc2ccc(OCCNC)cc21
6.00 to 6.60	CCn1c(C(O)(c2ccccc2)c2ccccc2)nc2ccc(C(=O)N[C@@H]3CCC(=O)N(C)C3)cc21
6.00 to 6.60	Cc1cccnc1C(O)(c1ccc(F)cc1)c1nc2ccc(C(=O)NC[C@@H](C)O)cc2n1C (stereo partly drawn)
6.00 to 6.60	CCn1c(C(O)(c2ccccc2)c2ccccc2)nc2ccc(C(F)(F)C#N)cc21
6.00 to 6.60	CCn1ccc(-c2ccc3nc(C(O)(c4ccccc4)c4ccccc4)n(CC)c3c2)n1
6.00 to 6.60	CCn1c(C(O)(c2ccccc2)c2ccccc2)nc2c(OC)cc(C(=O)NC[C@@H](C)O)cc21
< 6.00	CCn1c(C(O)(c2ccccc2)c2ccccc2)nc2ccc(C(=O)N3CCCC3)cc21
6.00 to 6.60	CCn1c(C(O)(c2ccccc2)c2ccccc2)nc2ccc(C3(O)COC3)cc21
< 6.00	CCn1c(C(O)(c2ccccc2)c2ccccc2)nc2ccc(C3(O)CCC3)cc21
< 6.00	C[C@@H](O)CNC(=O)c1ccc2nc(C(O)(c3ccccc3)c3ccccc3)n(C3CCNCC3)c2c1
< 6.00	CCn1c(C(O)(c2ccccc2)c2ccccc2)nc2ccc(C(=O)N3CCC(N)CC3)cc21
6.00 to 6.60	CCn1c(C(O)(c2ccc(C)cc2)c2ncccc2C)nc2ccc(CCCO)cc21 (stereo not drawn)
< 6.00	CNC(=O)c1cccc(C(O)(c2ccccc2)c2nc3ccc(Cl)cc3n2C)c1 (stereo not drawn)
6.00 to 6.60	CCn1ccc(-c2cc3c(cc2F)nc(C(O)(c2ccccc2)c2ccccc2)n3CC)n1
6.00 to 6.60	C[C@@H](O)CNC(=O)c1ccc2nc(C(O)(c3ccc(F)cc3F)c3ccc(F)cc3F)n(C)c2c1
6.00 to 6.60	CCn1c(C(OC)(c2ccccc2)c2ccccc2)nc2ccc(C(=O)NCC(F)(F)C#N)cc21
< 6.00	CCn1c(C(O)(c2ccccc2)c2ccccc2)nc2cccc(Cl)c21

pIC50	SMILES
< 6.00	CCn1c(C(O)(c2ccccc2)c2ccccc2)nc2ccc(C(=O)N3CCNCC3)cc21
< 6.00	C[C@@H](O)CNC(=O)c1ccc2nc(C(c3ccccc3)c3ccccc3)[nH]c2c1
6.00 to 6.60	CCn1c(C(O)(c2ccccc2)c2ccccc2)nc2ccc(C3CC3)cc21
< 6.00	CCn1c(C(O)(c2ccccc2)c2ccccc2)nc2cccc(OC)c21
< 6.00	Cn1c(C(O)(c2ccccc2)c2cccc(C(=O)NCCO)c2)nc2ccc(Cl)cc21 (stereo not drawn)
6.00 to 6.60	CCc1ccc2nc(C(O)(c3ccccc3)c3ccccc3)n(CC)c2c1
6.00 to 6.60	Cc1cccnc1C(O)(c1ccccc1)c1nc2ccc(C(=O)NC[C@@H](C)O)cc2n1C (stereo partly drawn)
< 6.00	CCn1c(C(O)(c2ccccc2)c2ccccc2)nc2ccc(F)c(F)c21
6.00 to 6.60	C=CCC(CO)(CO)c1ccc2nc(C(O)(c3ccccc3)c3ccccc3)n(CC)c2c1
6.00 to 6.60	CCn1c(C(O)(c2ccccc2)c2ccccc2)nc2c1cnn2C
6.00 to 6.60	CCn1c(C(O)(c2ccccc2)c2ccccc2)nc2cc(F)c(C(=O)NCCO)cc21
< 6.00	CCn1c(C(O)(c2ccccc2)c2ccccc2)nc2ccc(C(=O)N3CCC(O)C3)cc21 (stereo not drawn)
6.00 to 6.60	CCN1CCC[C@@H](NC(=O)c2ccc3nc(C(O)(c4ccccc4)c4ccccc4)n(CC)c3c2)C1
< 6.00	CCCc1ccc2nc(C(O)(c3ccccc3)c3ccccc3)n(CC)c2c1
6.00 to 6.60	CCn1c(C(O)(c2ccccc2)c2ccccc2)nc2cnc(OCCCO)cc21
6.00 to 6.60	CCn1c(C(O)(c2ccc(F)cc2F)c2ccc(F)cc2F)nc2ccc(C(=O)NCCO)cc21
< 6.00	CCn1c(C(O)(c2ccccc2)c2ccccc2)nc2ccc(C(=O)N3CCC(N)C3)cc21 (stereo not drawn)
< 6.00	CCn1c(C(O)(c2ccccc2)c2ccccc2)nc2ccc(OCCN(C)C(C)=O)cc21
6.00 to 6.60	C[C@@H](O)CNC(=O)c1ccc2nc(C(O)(c3ccccc3)c3ccccc3)n(CC(O)CO)c2c1 (stereo partly drawn)
6.00 to 6.60	CCn1c(C(O)(c2ccccc2)c2ccccc2)nc2cc(F)c(C(=O)NC[C@@H](C)O)cc21
< 6.00	CCn1c(C(O)(c2ccccc2)c2ccccc2)nc2ccc(C3(O)CCOCC3)cc21
< 6.00	C[C@@H](O)CNC(=O)c1ccc2nc(C(O)(c3ccccc3)c3ccccc3)n(C3CCNC3)c2c1 (stereo partly drawn)
6.00 to 6.60	Cc1ccc2c(c1)nc(C(O)(c1ccccc1)c1ccccc1)n2C
< 6.00	CCn1c(C(O)(c2ccccc2)c2ccccc2)nc2ccc(OC(C)C)cc21
< 6.00	CCn1c(C(O)(c2ccccc2)c2cccc(-c3ncco3)c2)nc2ccc(C(=O)NC)cc21 (stereo not drawn)

pIC50	SMILES
6.00 to 6.60	CCn1c(C(O)(c2ccccc2)c2ccccc2)nc2cc(OC)ncc21
6.00 to 6.60	CCn1c(C(O)(c2ccccc2)c2ccccc2)nc2ccc(C(=O)NC3CC(F)(F)C3)cc21
6.00 to 6.60	CCn1c(C(O)(c2ccccc2)c2ccccc2)nc2ccc(CNC(=O)[C@H](C)O)cc21
< 6.00	CCn1c(C(O)(c2ccccc2)c2ccccc2)nc2ccc(OCCN(C)C)cc21
< 6.00	CCn1c(C(O)(c2ccccc2)c2ccccc2)nc2cccc(F)c21
6.00 to 6.60	CCn1c(C(O)(c2ccccc2)c2ccccc2)nc2cnc(OCCO)cc21
< 6.00	Cn1c(C(O)(c2ccccc2)c2ccc(Cl)cc2)nc2ccc(C#N)cc21 (stereo not drawn)
6.00 to 6.60	C[C@@H](O)CNC(=O)c1ccc2nc(C(O)(c3ccccc3)c3ncccc3F)n(C)c2c1 (stereo partly drawn)
6.00 to 6.60	CCN1CC[C@H](NC(=O)c2ccc3nc(C(O)(c4ccccc4)c4ccccc4)n(CC)c3c2)C1
< 6.00	CCn1c(C(c2ccccc2)c2ccccc2)nc2ccc(C(=O)NC)cc21
< 6.00	Cc1ccc2nc(C(O)(c3ccccc3)c3ncccc3C)n(C)c2c1 (stereo not drawn)
6.00 to 6.60	CCn1c(C(O)(c2ccc(C)cc2)c2ncccc2F)nc2ccc(CCCO)cc21 (stereo not drawn)
< 6.00	C[C@@H](O)CNC(=O)c1ccc2nc(C(O)(c3ccccc3)c3ccccc3)n(C3CCOCC3)c2c1
6.00 to 6.60	CCn1c(C(O)(c2ccccc2)c2ccccc2)nc2c(Cl)cc(C(=O)NC[C@@H](C)O)cc21
< 6.00	CCn1c(C(O)(c2ccc(F)cc2F)c2ncccc2C)nc2ccc(CCCO)cc21 (stereo not drawn)
< 6.00	CCn1c(C(O)(c2ccccc2)c2ccccc2)nc2ccc(OCC(C)O)cc21 (stereo not drawn)
< 6.00	CCn1c(C(O)(c2ccccc2)c2ccccc2)nc2ccc(C(=O)N3CCN(C)CC3)cc21
6.00 to 6.60	CCn1c(C(O)(c2ccccc2)c2ccccc2)nc2ccc(C)c(F)c21
< 6.00	CCn1c(C(O)(c2ccccc2)c2ccccc2)nc2ccc(C(=O)N3CCC(O)CC3)cc21
6.00 to 6.60	CCn1c(C(O)(c2ccccc2)c2ccc(F)cc2F)nc2ccc(C(=O)NCCO)cc21 (stereo not drawn)
6.00 to 6.60	CCn1c(C(O)(c2ccccc2)c2ccccc2)nc2ccc(Oc3ccccc3)cc21
< 6.00	CCOc1cccc2nc(C(O)(c3ccccc3)c3ccccc3)n(CC)c12
6.00 to 6.60	CCN1CCC[C@H](NC(=O)c2ccc3nc(C(O)(c4ccccc4)c4ccccc4)n(CC)c3c2)C1
< 6.00	COCCNC(=O)c1cccc(C(O)(c2ccccc2)c2nc3ccc(Cl)cc3n2C)c1 (stereo not drawn)
6.00 to 6.60	CCOc1cc2c(cn1)nc(C(O)(c1ccccc1)c1ccccc1)n2CC

pIC50	SMILES
< 6.00	CN(C)C(=O)c1cccc(C(O)(c2ccccc2)c2nc3ccc(Cl)cc3n2C)c1 (stereo not drawn)
< 6.00	Cc1ccc2nc(C(O)(c3ccccc3)c3cccc(=O)n3C)n(C)c2c1 (stereo not drawn)
< 6.00	C[C@@H](O)CNC(=O)c1ccc2nc(C(O)(c3ccccc3)c3ccccc3)n(CC3CCOCC3)c2c1
6.00 to 6.60	C[C@@H](O)CNC(=O)c1ccc2nc(C(O)(c3ccccc3)c3ccccc3)n(-c3ccccc3)c2c1
6.00 to 6.60	COCCn1c(C(O)(c2ccccc2)c2ccccc2)nc2ccc(C(=O)NC[C@@H](C)O)cc21
6.00 to 6.60	CCn1c(C(O)(c2ccccc2)c2ccccc2)nc2ccc(C3(O)CCCC3)cc21
< 6.00	CCn1c(C(O)(c2ccccc2)c2ccccc2)nc2cccc(C)c21
< 6.00	CCn1c(C(O)(c2ccccc2)c2ccccc2)nc2ccc(C(=O)N3CCOCC3)cc21
< 6.00	CNC(=O)c1ccc2nc(C(c3ccccc3)c3ccccc3)[nH]c2c1
< 6.00	Cc1ccc2nc(C(O)(c3ccccc3)c3ncccc3F)n(C)c2c1 (stereo not drawn)
< 6.00	CCn1c(C(O)(c2ccccc2)c2ccccc2)nc2ccc(OCC3CC3)cc21
< 6.00	Cc1cccc2c1nc(C(O)(c1ccccc1)c1ccccc1)n2C
< 6.00	CCn1c(C(O)(c2ccccc2)c2ccccc2)nc2ccc(F)cc21
< 6.00	CCn1ccc(NC(=O)c2ccc3nc(C(O)(c4ccccc4)c4ccccc4)n(CC)c3c2)n1
< 6.00	CCn1c(C(O)(c2ccccc2)c2ccccc2)nc2ccc(OCCOC)cc21
< 6.00	CCNC(=O)c1cccc(C(O)(c2ccccc2)c2nc3ccc(Cl)cc3n2C)c1 (stereo not drawn)
6.00 to 6.60	CCn1c(C(O)(c2ccccc2)c2ccccc2)nc2ccc(CNC(=O)[C@@H](C)O)cc21
< 6.00	Cc1ccc2nc(C(O)(c3ccccc3)c3ccn(C)c(=O)c3)n(C)c2c1 (stereo not drawn)
< 6.00	CCn1c(C(O)(c2ccccc2)c2ccccc2)nc2ccc(C3(O)CCOC3)cc21 (stereo not drawn)
6.00 to 6.60	Cn1c(C(O)(c2ccc(F)cc2F)c2ccc(F)cc2F)nc2ccc(C(=O)NCCO)cc21
6.00 to 6.60	CC(=O)OCC(O)(c1ccccc1)c1nc2ccc(C)cc2n1C (stereo not drawn)
6.00 to 6.60	CCn1c(C(O)(c2ccccc2)c2ccccc2)nc2ccc(COc3ccccc3)cc21
6.00 to 6.60	CCn1c(C(O)(c2ccccc2)c2ccccc2)nc2ccnc(OCCO)c21
